Source: patent US5132313A, “Non-competitive NMDA receptor antagonists and methods for their use” (priority 1989, dated 1992)

Biological target: PCP binding sites of the NMDA receptor complex
Set-up: species or system rat
Details: for IC50: displacing (+)-[3H]MK-801 bound to rat brain homogenates, 0.5-1 nM radioligand, 100 μM glutamate, 30 μM glycine, 2 h room temperature, pH 7.4, mean of three experiments in duplicate ±SEM; for binding potency compared with corresponding S enantiomer: R enantiomers 1, 3, 5, 7 versus 2, 4, 6, 8; for Relative Potency (%): relative to PCP = 100%, displacing (+)-[3H]MK-801

| SMILES | IC50 [µM] | binding potency compared with corresponding S enantiomer (in words) | Relative Potency (%) | binding difference between enantiomeric pair of compounds 3 and 4 (compound 3 (R) versus compound 4 (S)) [fold] | binding potency compared with PCP (in words) |
| --- | --- | --- | --- | --- | --- |
| N[C@]12CC=CC[C@H]1Cc1ccccc12 [Compound 1] | 0.114 ± 0.014 | more potent in binding than the corresponding enantiomers of S stereochemistry | 31 |  |  |
| N[C@@]12CC=CC[C@@H]1Cc1ccccc12 [Compound 2] | 2.24 ± 0.135 |  | 2 |  |  |
| N[C@]12CCCC[C@H]1Cc1ccccc12 [Compound 3] | 0.019 ± 0.001 | more potent in binding than the corresponding enantiomers of S stereochemistry | 184 | 73 | more potent in binding than PCP |
| N[C@@]12CCCC[C@@H]1Cc1ccccc12 [Compound 4] | 1.39 ± 0.049 |  | 3 |  |  |
| CCN[C@]12CCCC[C@H]1Cc1ccccc12 [Compound 7] | 0.068 ± 0.007 | more potent in binding than the corresponding enantiomers of S stereochemistry | 51 |  |  |
| CCN[C@@]12CCCC[C@@H]1Cc1ccccc12 [Compound 8] | 0.546 ± 0.04 |  | 6 |  |  |
| c1ccc(C2(N3CCCCC3)CCCCC2)cc1 [PCP, phencyclidine, reference compound] | 0.035 ± 0.001 |  | 100 |  |  |
| c1csc(C2(N3CCCCC3)CCCCC2)c1 [TCP, 1-[1-(2-thienyl)-cyclohexyl]-piperidine, reference compound] | 0.011 ± 0.001 |  | 318 |  |  |
